Test results reported in ChEMBL document CHEMBL3885881, “DrugMatrix”.

Organism: Rattus norvegicus
Assay: DrugMatrix - Regimen: Daily Repeat
Assay type: toxicity, organism-based, Sprague-Dawley
Design: regimen Daily Repeat, gender Male, age 6-8 weeks
Conditions: in vivo, sc, route subcutaneous, […]; for ABSOLUTE BASOPHIL / ABSOLUTE EOSINOPHIL / ABSOLUTE LYMPHOCYTE / ABSOLUTE MONOCYTE / ABSOLUTE SEGMENTED NEUTROPHIL / BASOPHIL / EOSINOPHIL / ERYTHROCYTE COUNT / HEMATOCRIT / HEMOGLOBIN / LEUKOCYTE COUNT / LYMPHOCYTE / MEAN CORPUSCULAR HEMOGLOBIN / MEAN CORPUSCULAR HEMOGLOBIN CONCENTRATION / MEAN CORPUSCULAR VOLUME / MONOCYTE / NEUTROPHIL / NUCLEATED RED BLOOD CELLS / PLATELET COUNT: tissue Blood; for ALANINE AMINOTRANSFERASE / ALBUMIN / ALKALINE PHOSPHATASE / ASPARTATE AMINOTRANSFERASE / BLOOD UREA NITROGEN / CARBON DIOXIDE / CHLORIDE / CHOLESTEROL / CREATINE PHOSPHOKINASE / CREATININE / GLUCOSE / LACTATE DEHYDROGENASE / LIPASE / PHOSPHORUS / POTASSIUM / SODIUM / TOTAL BILIRUBIN / TOTAL PROTEIN / URIC ACID: tissue Plasma
[1] = 0 mg/kg, 72 h, dose level Control, time 3 day
[2] = 0 mg/kg, 120 h, dose level Control, time 5 day
[3] = 14 mg/kg, 72 h, dose level Low, time 3 day

CCN(CC)CCOCCC1=CCC2CC1C2(C)C (centres undefined) [MYRTECAINE]
ABSOLUTE BASOPHIL [1]: 0 CELLS/uL | ABSOLUTE EOSINOPHIL [1]: 0 CELLS/uL | ABSOLUTE LYMPHOCYTE [1]: 10887 CELLS/uL | ABSOLUTE MONOCYTE [1]: 56 CELLS/uL | ABSOLUTE SEGMENTED NEUTROPHIL [1]: 1057 CELLS/uL | BASOPHIL [1]: 0% | EOSINOPHIL [1]: 0% | ERYTHROCYTE COUNT [1]: 5.31 x10E6/uL | HEMATOCRIT [1]: 33.78% | HEMOGLOBIN [1]: 13.4 G/DL | LEUKOCYTE COUNT [1]: 12 x10E3/uL | LYMPHOCYTE [1]: 91.17% | MEAN CORPUSCULAR HEMOGLOBIN [1]: 25.25 pg | MEAN CORPUSCULAR HEMOGLOBIN CONCENTRATION [1]: 39.65 G/DL | MEAN CORPUSCULAR VOLUME [1]: 63.65 fL | MONOCYTE [1]: 0.5% | NEUTROPHIL [1]: 8.33% | NUCLEATED RED BLOOD CELLS [1]: 0 /100WBC | PLATELET COUNT [1]: 1142 x10E3/uL | ALANINE AMINOTRANSFERASE [1]: 57.17 u/L | ALBUMIN [1]: 4.28 G/DL | ALKALINE PHOSPHATASE [1]: 425.83 u/L | ASPARTATE AMINOTRANSFERASE [1]: 93.83 u/L | BLOOD UREA NITROGEN [1]: 14.17 mg/dL | CARBON DIOXIDE [1]: 33.5 mmol/L | CHLORIDE [1]: 100 MEQ/L | CHOLESTEROL [1]: 70.33 mg/dL | CREATINE PHOSPHOKINASE [1]: 438.67 u/L | CREATININE [1]: 0.19 mg/dL | GLUCOSE [1]: 138.5 mg/dL | LACTATE DEHYDROGENASE [1]: 190.17 u/L | LIPASE [1]: 9.83 u/L | PHOSPHORUS [1]: 11.05 mg/dL | POTASSIUM [1]: 6.59 MEQ/L | SODIUM [1]: 143.58 MEQ/L | TOTAL BILIRUBIN [1]: 0.22 mg/dL | TOTAL PROTEIN [1]: 6.15 G/DL | URIC ACID [1]: 1.3 mg/dL | ABSOLUTE BASOPHIL [2]: 0 CELLS/uL | ABSOLUTE EOSINOPHIL [2]: 91.17 CELLS/uL | ABSOLUTE LYMPHOCYTE [2]: 11847.67 CELLS/uL | ABSOLUTE MONOCYTE [2]: 172.83 CELLS/uL | ABSOLUTE SEGMENTED NEUTROPHIL [2]: 1105 CELLS/uL | BASOPHIL [2]: 0% | EOSINOPHIL [2]: 0.67% | ERYTHROCYTE COUNT [2]: 5.35 x10E6/uL | HEMATOCRIT [2]: 33.65% | HEMOGLOBIN [2]: 13.42 G/DL | LEUKOCYTE COUNT [2]: 13.22 x10E3/uL | LYMPHOCYTE [2]: 89.83% | MEAN CORPUSCULAR HEMOGLOBIN [2]: 25.12 pg | MEAN CORPUSCULAR HEMOGLOBIN CONCENTRATION [2]: 39.9 G/DL | MEAN CORPUSCULAR VOLUME [2]: 63 fL | MONOCYTE [2]: 1.33% | NEUTROPHIL [2]: 8.17% | NUCLEATED RED BLOOD CELLS [2]: 0 /100WBC | PLATELET COUNT [2]: 1347.83 x10E3/uL | ALANINE AMINOTRANSFERASE [2]: 50 u/L | ALBUMIN [2]: 4.1 G/DL | ALKALINE PHOSPHATASE [2]: 329.17 u/L | ASPARTATE AMINOTRANSFERASE [2]: 77.17 u/L | BLOOD UREA NITROGEN [2]: 16.83 mg/dL | CARBON DIOXIDE [2]: 34.83 mmol/L | CHLORIDE [2]: 99.83 MEQ/L | CHOLESTEROL [2]: 75.67 mg/dL | CREATINE PHOSPHOKINASE [2]: 295.83 u/L | CREATININE [2]: 0.18 mg/dL | GLUCOSE [2]: 156.33 mg/dL | LACTATE DEHYDROGENASE [2]: 166.83 u/L | LIPASE [2]: 9.83 u/L | PHOSPHORUS [2]: 12.18 mg/dL | POTASSIUM [2]: 6.69 MEQ/L | SODIUM [2]: 143.97 MEQ/L | TOTAL BILIRUBIN [2]: 0.22 mg/dL | TOTAL PROTEIN [2]: 6.05 G/DL | URIC ACID [2]: 1.6 mg/dL | ABSOLUTE BASOPHIL [3]: 0 CELLS/uL | ABSOLUTE EOSINOPHIL [3]: 0 CELLS/uL | ABSOLUTE LYMPHOCYTE [3]: 10822.33 CELLS/uL | ABSOLUTE MONOCYTE [3]: 0 CELLS/uL | ABSOLUTE SEGMENTED NEUTROPHIL [3]: 1344.33 CELLS/uL | BASOPHIL [3]: 0% | EOSINOPHIL [3]: 0% | ERYTHROCYTE COUNT [3]: 5.32 x10E6/uL | HEMATOCRIT [3]: 33.73% | HEMOGLOBIN [3]: 13.37 G/DL | LEUKOCYTE COUNT [3]: 12.17 x10E3/uL | LYMPHOCYTE [3]: 89% | MEAN CORPUSCULAR HEMOGLOBIN [3]: 25.13 pg | MEAN CORPUSCULAR HEMOGLOBIN CONCENTRATION [3]: 39.6 G/DL | MEAN CORPUSCULAR VOLUME [3]: 63.4 fL | MONOCYTE [3]: 0% | NEUTROPHIL [3]: 11% | NUCLEATED RED BLOOD CELLS [3]: 0 /100WBC | PLATELET COUNT [3]: 1197.33 x10E3/uL | ALANINE AMINOTRANSFERASE [3]: 47.67 u/L | ALBUMIN [3]: 4.13 G/DL | ALKALINE PHOSPHATASE [3]: 420 u/L | ASPARTATE AMINOTRANSFERASE [3]: 80.67 u/L | BLOOD UREA NITROGEN [3]: 13.67 mg/dL | CARBON DIOXIDE [3]: 25.67 mmol/L | CHLORIDE [3]: 103.67 MEQ/L | CHOLESTEROL [3]: 75.67 mg/dL | CREATINE PHOSPHOKINASE [3]: 200.33 u/L | CREATININE [3]: 0.16 mg/dL | GLUCOSE [3]: 152.33 mg/dL | LACTATE DEHYDROGENASE [3]: 214.67 u/L | LIPASE [3]: 9 u/L | PHOSPHORUS [3]: 14.03 mg/dL | POTASSIUM [3]: 6.82 MEQ/L | SODIUM [3]: 146.53 MEQ/L | TOTAL BILIRUBIN [3]: 0.17 mg/dL | TOTAL PROTEIN [3]: 5.97 G/DL | URIC ACID [3]: 1.5 mg/dL
